Assay: gradient 5% acetonitrile 3 min, to 50% in 2 min, to 85% in 15 min, held 3 min, 100 µL/min
Conditions: column: Zorbax Extend-C18 2.1 x 50 mm; eluents: water / acetonitrile, 0.1% formic acid
Method in brief: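 Values are retention times taken from adduct peaks that software picked and an analyst inspected. The pure standards were run as mixtures of ~100 molecules on HPLC linked to a quadrupole time-of-flight mass spectrometer, in positive and negative ionization mode. A Zorbax Extend-C18 column (2.1 × 50 mm, 1.8 μm) was used at 100 μL/min with water and acetonitrile, each including 0.1% formic acid.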

| Structure (SMILES) | RP-LC retention time [s] |
| --- | --- |
| CCC1Oc2ccc(S(=O)(=O)N3CCC(C(=O)Nc4ccc(C)c(C)c4)CC3)cc2NC1=O (configuration not stated) | 930 |
| N=C(N)c1ccc2cc(OC(=O)c3ccc(N=C(N)N)cc3)ccc2c1 | 595 |
| O=C(c1ccc(Br)o1)N1CC2CN(S(=O)(=O)c3ccccc3)CC(C1)O2 | 781 |
| O=C(NC1CCCCC1)c1cccc(Nc2c(-c3ccc(Cl)cc3)nc3cnccn23)c1 | 935 |
| O=C(Nc1ccc(F)c(Cl)c1)c1nc2ncccn2n1 | 729 |
| CCCOc1nc2c(c(=O)n(C)c(=O)n2C)n1C | 788 |
| C=CCN=C(NC#N)SC | 696 |
| COCCn1cc(CCNC(=O)Nc2ccc(Br)cc2F)c2cccnc21 | 834 |
| Clc1nnc(N2CCSCC2)c2ccccc12 | 845 |
| CSc1cccc(NC(=O)N2CCCC(C)(C(=O)NCc3ccccc3)C2)c1 (configuration not stated) | 951 |
| Cc1cccc2nnc(N3CCN(C(=O)c4ccc(Cl)s4)CC3)n12 | 701 |
| CN1C(=O)COc2cc(-c3noc(C(=O)NCCCN4CCCC4)n3)ccc21 | 604 |
| CCn1c(=O)sc2cc(S(=O)(=O)N3CCC(C(=O)Nc4ccccn4)CC3)ccc21 | 751 |
| CCN1C(=O)c2cccnc2Sc2cc(C(=O)N3CCCCC3)ccc21 | 730 |
| COCCCNS(=O)(=O)c1cc(-c2nc(C)cs2)n(CC(=O)N2CCCCC2)c1 | 824 |
| COc1ccc(N2CCN(Cc3cc(=O)c(OC)cn3CC(=O)NC(C)C)CC2)cc1 | 557 |
| CCc1noc(-c2cccn2Cc2cc(F)cc(F)c2)n1 | 1160 |
| CC(C)CCNC(=O)C1(C)CN(S(=O)(=O)c2ccccc2)CC(=O)N1CCCN1CCCCC1 (configuration not stated) | 674 |
| O=S1(=O)N(Cc2cccc(F)c2)CCCN1Cc1ccccc1Cl | 1180 |
| CC(=O)N1CCCN(C2=NS(=O)(=O)C(c3ccc(Cl)cc3)=C2C)CC1 | 718 |
| Cc1cccc2nnc(N3CCC(C(=O)Nc4cccc(F)c4)CC3)n12 | 697 |
| CCn1cnc(S(=O)(=O)N2CCC(C(=O)N3CCN(c4cccc(Cl)c4)CC3)CC2)c1 | 825 |
| Cc1cc(C)cc(OCc2nc(CCN(C)C(=O)c3cccs3)no2)c1 | 974 |

The remaining lines, values ahead:

| RP-LC retention time [s] | Structure (SMILES) |
| --- | --- |
| 770 | COC(=O)c1ccc2c(=O)n(-c3cc(C)cc(C)c3)c(N3CCN(Cc4ccccc4)CC3)nc2c1 |
| 1010 | CN(C)c1ccc(/C=C2\C(=O)Nc3ccccc32)cc1 |
| 855 | COc1ccccc1N1CCN(c2ccc3cc(S(=O)(=O)N4CCCC4)ccc3n2)CC1 |
| 899 | O=C(NCc1cccc(Br)c1)C1CCCN(c2ccc(=O)n(-c3cccc(F)c3)n2)C1 (configuration not stated) |
| 878 | CCCS(=O)(=O)N1CCc2ccc(NC(=O)Oc3ccccc3)cc2C1 |
| 1030 | CCOc1ccc(NC(=O)Cn2c(=O)cc(-c3nc(C(C)C)no3)c3ccccc32)cc1 |
| 1160 | CCCCn1c(=O)c2ccccc2n(Cc2nc(-c3ccc(OC)cc3)no2)c1=O |
| 699 | CCCn1cc(CCNC(=O)Nc2c(F)cccc2F)c2cccnc21 |
| 756 | COc1ccccc1NC(=O)N1CCC2(CC1)NC(=O)c1cc(F)ccc1N2C |
| 938 | Cc1ccc(C(=O)N2CCC3(CC2)N=C(c2cccc(Br)c2)NO3)cc1 |
| 1170 | CCc1cc(=O)n(CC(=O)Nc2ccccc2F)c(-c2cccc(F)c2)n1 |
| 995 | Cc1ccccc1CNC(=O)C1(C)CCCN(C(=O)Nc2ccc(Cl)cc2)C1 (configuration not stated) |
| 1100 | O=C(Nc1cccc([N+](=O)[O-])c1)c1cc2ccccc2cc1O |
| 901 | Cc1ccn2cc(C(=O)N3CCN(c4ccccc4C)CC3)nc2c1 |

Source: the METLIN SMRT retention time set (Domingo-Almenara et al. 2019)
